Source: article PMC6199744, “Development of Chemical Proteomics for the Folateome and Analysis of the Kinetoplastid Folateome” (ACS Infectious Diseases, 2018)
Read-outs that look alike come from different tables or passages of the source.

Experiments:
Format in all cases: binding
[1] = target: T1, HeLa cell extract proteins (Homo sapiens, UniProt P05109)
T1 construct: endogenous in cells; host or cells: HeLa cell extract
T1 sequence (P05109 1-93): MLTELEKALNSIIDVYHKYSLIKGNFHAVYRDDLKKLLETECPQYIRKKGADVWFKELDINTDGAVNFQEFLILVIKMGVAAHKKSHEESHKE

[2] = target: T2, HeLa cell extract proteins (Homo sapiens, UniProt P26640)
T2 construct: endogenous in cells; host or cells: HeLa cell extract
T2 sequence (P26640 1-1264): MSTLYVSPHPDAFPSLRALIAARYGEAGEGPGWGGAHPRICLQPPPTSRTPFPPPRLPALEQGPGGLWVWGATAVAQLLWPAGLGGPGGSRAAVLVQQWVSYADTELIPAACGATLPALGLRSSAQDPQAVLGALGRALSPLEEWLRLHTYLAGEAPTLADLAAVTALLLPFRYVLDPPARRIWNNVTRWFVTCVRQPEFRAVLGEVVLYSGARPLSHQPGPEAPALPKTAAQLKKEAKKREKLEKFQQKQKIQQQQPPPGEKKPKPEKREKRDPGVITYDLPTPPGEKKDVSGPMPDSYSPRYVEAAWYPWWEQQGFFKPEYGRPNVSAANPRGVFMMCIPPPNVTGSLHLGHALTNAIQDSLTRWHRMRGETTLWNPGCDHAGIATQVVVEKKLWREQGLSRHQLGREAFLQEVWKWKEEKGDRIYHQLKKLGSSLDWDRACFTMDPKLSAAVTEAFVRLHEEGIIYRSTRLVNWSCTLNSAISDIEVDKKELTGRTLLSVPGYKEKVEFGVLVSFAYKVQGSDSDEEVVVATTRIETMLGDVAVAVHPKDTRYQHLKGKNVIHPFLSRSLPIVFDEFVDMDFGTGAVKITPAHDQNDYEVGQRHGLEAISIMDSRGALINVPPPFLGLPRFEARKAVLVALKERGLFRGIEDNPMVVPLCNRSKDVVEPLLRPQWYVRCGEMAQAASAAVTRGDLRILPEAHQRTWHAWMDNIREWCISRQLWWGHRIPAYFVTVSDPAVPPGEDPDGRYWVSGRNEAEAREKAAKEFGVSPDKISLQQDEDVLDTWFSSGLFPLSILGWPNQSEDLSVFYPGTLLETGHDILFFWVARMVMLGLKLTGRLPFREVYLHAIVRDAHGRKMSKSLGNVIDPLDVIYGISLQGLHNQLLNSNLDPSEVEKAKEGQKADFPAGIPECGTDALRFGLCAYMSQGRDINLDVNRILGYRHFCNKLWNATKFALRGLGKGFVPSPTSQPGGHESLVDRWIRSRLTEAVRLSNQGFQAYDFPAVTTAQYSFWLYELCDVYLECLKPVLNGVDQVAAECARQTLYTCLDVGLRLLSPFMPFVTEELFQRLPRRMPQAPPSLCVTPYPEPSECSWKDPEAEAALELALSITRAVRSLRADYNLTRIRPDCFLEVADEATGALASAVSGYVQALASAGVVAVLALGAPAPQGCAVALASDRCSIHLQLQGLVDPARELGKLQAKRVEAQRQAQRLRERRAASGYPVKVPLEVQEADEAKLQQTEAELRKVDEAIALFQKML

[3] = target: T3, HeLa cell extract proteins (Homo sapiens, UniProt Q96S59)
T3 construct: endogenous in cells; host or cells: HeLa cell extract

[4] = target: T4, HeLa cell extract proteins (Homo sapiens, UniProt P50748); settings: HeLa; protein KNTC1
T4 construct: endogenous in cells; host or cells: HeLa cell extract

[5] = target: T5, HeLa cell extract proteins (Homo sapiens, UniProt Q5XKP0); settings: captured protein C19ORF70; HeLa
T5 construct: endogenous in cells; host or cells: HeLa cell extract
T5 sequence (Q5XKP0 1-118): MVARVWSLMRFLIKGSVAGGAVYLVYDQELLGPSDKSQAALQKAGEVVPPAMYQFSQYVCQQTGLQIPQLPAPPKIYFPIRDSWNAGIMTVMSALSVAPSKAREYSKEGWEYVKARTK

[6] = target: T6, HeLa cell extract proteins (Homo sapiens, UniProt Q92688); settings: HeLa; protein ANP32B (ISOFORM 1 OF ACIDIC LEUCINE-RICH NUCLEAR PHOSPHOPROTEIN 32 FAMILY MEMBER B.)
T6 construct: endogenous in cells; host or cells: HeLa cell extract

[7] = target: T7, HeLa cell extract proteins (Homo sapiens, UniProt Q9UIA9); settings: HeLa; protein XPO7
T7 construct: endogenous in cells; host or cells: HeLa cell extract
T7 sequence (Q9UIA9 1-1087): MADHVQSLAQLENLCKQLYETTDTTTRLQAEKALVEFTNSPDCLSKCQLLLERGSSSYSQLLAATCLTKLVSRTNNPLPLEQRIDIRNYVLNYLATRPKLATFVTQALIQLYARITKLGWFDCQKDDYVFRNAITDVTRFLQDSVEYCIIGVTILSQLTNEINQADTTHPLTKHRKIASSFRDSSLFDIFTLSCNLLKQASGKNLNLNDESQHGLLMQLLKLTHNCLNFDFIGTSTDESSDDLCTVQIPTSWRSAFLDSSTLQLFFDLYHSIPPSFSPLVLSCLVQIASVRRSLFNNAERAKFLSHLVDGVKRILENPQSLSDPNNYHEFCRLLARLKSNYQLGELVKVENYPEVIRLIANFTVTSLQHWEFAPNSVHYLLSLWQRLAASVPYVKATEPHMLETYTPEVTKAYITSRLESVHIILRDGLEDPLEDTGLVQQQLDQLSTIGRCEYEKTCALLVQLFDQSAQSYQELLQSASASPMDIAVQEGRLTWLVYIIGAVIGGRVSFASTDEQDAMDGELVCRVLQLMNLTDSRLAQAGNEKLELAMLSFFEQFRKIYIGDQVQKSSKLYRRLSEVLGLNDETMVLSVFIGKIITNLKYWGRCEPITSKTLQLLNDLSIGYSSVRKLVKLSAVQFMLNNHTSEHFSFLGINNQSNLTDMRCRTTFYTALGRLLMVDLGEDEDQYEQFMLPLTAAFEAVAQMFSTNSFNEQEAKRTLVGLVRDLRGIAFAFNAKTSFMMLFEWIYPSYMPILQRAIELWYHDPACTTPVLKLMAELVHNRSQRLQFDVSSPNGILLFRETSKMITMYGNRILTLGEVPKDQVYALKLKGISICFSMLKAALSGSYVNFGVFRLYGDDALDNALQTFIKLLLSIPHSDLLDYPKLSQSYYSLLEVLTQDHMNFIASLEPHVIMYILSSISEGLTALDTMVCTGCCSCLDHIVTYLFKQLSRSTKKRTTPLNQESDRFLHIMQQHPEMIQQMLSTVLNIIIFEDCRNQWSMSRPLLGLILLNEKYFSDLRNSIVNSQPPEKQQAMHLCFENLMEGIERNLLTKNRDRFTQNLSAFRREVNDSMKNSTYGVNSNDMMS

T6 sequence (Q92688 whole entry, canonical isoform): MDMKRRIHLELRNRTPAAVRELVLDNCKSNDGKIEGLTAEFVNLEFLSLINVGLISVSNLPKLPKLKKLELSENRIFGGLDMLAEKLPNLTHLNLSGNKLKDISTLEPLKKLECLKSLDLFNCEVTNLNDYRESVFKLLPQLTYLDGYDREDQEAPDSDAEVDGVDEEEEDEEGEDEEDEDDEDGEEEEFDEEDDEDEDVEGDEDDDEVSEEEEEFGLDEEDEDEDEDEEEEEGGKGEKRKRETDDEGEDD
T3 sequence (Q96S59 whole entry): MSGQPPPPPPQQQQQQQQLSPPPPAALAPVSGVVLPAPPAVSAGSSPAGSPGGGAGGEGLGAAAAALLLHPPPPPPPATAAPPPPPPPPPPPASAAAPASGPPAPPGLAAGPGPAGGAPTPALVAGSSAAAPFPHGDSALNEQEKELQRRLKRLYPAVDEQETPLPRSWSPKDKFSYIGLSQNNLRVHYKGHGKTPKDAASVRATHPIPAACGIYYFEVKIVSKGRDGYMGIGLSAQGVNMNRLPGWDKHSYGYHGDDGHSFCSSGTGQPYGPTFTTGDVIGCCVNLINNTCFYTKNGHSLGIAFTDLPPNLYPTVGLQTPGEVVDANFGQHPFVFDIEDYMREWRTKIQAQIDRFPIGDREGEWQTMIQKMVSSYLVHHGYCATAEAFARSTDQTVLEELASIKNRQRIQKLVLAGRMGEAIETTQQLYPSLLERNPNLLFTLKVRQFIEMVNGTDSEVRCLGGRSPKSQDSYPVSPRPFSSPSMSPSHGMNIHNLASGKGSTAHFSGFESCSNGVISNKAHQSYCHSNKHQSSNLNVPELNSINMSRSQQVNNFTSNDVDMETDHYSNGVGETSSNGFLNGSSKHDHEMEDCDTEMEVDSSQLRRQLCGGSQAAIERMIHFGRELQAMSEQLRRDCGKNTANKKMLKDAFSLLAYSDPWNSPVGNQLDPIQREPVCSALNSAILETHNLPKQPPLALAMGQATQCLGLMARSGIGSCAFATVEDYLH
T4 sequence (P50748 whole entry): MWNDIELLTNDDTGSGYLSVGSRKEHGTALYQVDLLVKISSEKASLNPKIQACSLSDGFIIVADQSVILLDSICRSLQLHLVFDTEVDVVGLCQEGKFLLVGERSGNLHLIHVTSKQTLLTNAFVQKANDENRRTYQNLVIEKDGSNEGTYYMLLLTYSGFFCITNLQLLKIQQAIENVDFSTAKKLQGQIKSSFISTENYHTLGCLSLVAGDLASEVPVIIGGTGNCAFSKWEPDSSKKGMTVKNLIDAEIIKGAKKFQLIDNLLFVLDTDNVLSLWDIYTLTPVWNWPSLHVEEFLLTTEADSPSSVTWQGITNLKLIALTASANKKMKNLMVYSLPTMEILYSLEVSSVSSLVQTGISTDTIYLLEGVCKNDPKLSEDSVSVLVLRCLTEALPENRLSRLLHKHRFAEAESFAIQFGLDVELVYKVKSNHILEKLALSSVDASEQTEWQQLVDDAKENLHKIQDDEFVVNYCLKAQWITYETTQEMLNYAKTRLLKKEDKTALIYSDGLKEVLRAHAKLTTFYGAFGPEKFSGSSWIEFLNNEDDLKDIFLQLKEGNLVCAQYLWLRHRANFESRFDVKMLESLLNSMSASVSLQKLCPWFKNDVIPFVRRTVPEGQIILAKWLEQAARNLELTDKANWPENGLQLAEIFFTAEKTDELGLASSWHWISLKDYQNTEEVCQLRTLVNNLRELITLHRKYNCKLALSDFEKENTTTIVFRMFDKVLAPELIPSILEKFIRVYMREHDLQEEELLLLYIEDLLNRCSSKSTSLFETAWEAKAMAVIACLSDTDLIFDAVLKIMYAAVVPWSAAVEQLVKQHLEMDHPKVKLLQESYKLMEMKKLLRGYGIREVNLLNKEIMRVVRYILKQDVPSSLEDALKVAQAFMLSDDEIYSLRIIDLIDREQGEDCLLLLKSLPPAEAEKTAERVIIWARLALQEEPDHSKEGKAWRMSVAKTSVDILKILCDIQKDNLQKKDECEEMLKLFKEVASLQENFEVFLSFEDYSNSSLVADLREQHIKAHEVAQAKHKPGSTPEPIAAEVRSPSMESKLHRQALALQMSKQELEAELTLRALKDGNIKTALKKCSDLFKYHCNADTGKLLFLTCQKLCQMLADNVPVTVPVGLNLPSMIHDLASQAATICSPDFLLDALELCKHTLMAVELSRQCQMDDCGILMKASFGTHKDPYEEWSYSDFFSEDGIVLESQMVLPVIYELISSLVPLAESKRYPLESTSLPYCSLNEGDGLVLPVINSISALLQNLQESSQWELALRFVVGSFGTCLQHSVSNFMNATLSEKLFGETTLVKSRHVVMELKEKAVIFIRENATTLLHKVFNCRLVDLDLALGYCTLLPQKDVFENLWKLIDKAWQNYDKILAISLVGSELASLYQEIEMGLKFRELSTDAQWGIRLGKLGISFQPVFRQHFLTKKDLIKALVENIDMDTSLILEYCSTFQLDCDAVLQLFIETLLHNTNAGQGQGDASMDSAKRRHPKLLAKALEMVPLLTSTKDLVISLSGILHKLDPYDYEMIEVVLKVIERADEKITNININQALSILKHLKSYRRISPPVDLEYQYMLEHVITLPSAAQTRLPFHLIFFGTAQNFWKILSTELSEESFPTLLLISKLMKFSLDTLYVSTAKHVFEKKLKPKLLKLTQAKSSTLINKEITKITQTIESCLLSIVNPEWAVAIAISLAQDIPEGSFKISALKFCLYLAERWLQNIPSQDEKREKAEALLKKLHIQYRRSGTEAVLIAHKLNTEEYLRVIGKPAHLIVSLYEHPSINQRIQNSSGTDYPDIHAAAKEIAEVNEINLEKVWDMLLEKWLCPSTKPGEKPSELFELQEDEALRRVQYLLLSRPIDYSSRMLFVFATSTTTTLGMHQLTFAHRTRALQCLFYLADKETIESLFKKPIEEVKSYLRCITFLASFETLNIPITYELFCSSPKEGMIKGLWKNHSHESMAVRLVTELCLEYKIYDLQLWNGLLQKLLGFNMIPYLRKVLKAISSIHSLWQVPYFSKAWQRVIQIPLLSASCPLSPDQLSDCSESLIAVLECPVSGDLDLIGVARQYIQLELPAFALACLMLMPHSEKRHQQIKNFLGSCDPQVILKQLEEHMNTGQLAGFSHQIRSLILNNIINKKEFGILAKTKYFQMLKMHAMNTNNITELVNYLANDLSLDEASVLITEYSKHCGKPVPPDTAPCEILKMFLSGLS

Row | Structure (SMILES) | fold changes relative to vehicle control ([1]; protein S100A8, HeLa) | fold changes relative to vehicle control ([2]; protein VARS, HeLa) | fold changes relative to vehicle control ([3]; protein RANBP9, HeLa) | fold changes relative to vehicle control [4] | fold changes relative to vehicle control [5] | fold changes relative to vehicle control [6] | fold changes relative to vehicle control [7] | also measured
1 | Nc1nc2c(c(=O)[nH]1)N(C=O)C(CNc1ccc(C(=O)N[C@@H](CCC(=O)O)C(=O)O)cc1)CN2 (stereo partly drawn) [LEU, leucovorin] | 0.28 | 0.86 | 1.03 | – | – | – | – | –
2 | Nc1nc2[nH]cc(CCc3ccc(C(=O)N[C@@H](CCC(=O)O)C(=O)O)cc3)c2c(=O)[nH]1 [PTX, pemetrexed] | – | – | – | – | – | – | – | fold changes relative to vehicle control [1]: 0.34; fold changes relative to vehicle control [2]: 0.84; fold changes relative to vehicle control [3]: 1.05
3 | CCCCCCOc1ccc(Cc2cnc(N)nc2N)cc1 [compound 1] | – | – | – | 1.15 | 1.16 | 1.88 fold | 0.88 | –
4 | CCCCCCOc1cccc(Cc2cnc(N)nc2N)c1 [compound 2] | – | – | – | 1.13 | 1.14 | 3.3 fold | 1.28 | –
5 | Nc1nc2cccc(-c3ccccc3)c2n1Cc1ccc(Cl)c(Cl)c1 [compound 3] | – | – | – | 1.17 | 1.13 | 4.13 fold | 0.98 | –
6 | NCCOCCOCC(=O)Nc1nc2ncc(CNc3ccc(C(=O)NC(CCC(=O)O)C(=O)O)cc3)nc2c(=O)[nH]1 (stereo not drawn) [compound 6] | 0.4 | 1 | 0.96 | – | – | – | – | –
7 | NCCCNc1ccc(C(=O)NC(CCC(=O)O)C(=O)O)cc1 (stereo not drawn) [compound 7] | 0.26 | 0.91 | 1.65 | – | – | – | – | –
